Columns and labels:
[1] = Compound selectivity was assessed using vacuolar type proton ATPase from human kidney cortex (hK)
[2] = Compound selectivity was assessed using vacuolar type proton ATPase from human kidney cortex(hK)
[3] = organism: Homo sapiens; experiment: Ability to inhibit bone resorption in human osteoclast obtained from giant cell tumors of bone; assay type: functional
[4] = organism: Homo sapiens; experiment: In vitro human osteoclast activity for bone resorption was assessed by ELISA assay; assay type: functional
[5] = Compound selectivity was assessed using vacuolar type proton ATPase from chicken adrenal glands (cAG); assay type: tissue-based, Adrenal gland

| Compound | IC50 [1] | IC50 [2] | IC50 [3] | IC50 [4] | IC50 [5] |
| --- | --- | --- | --- | --- | --- |
| CO/C(=C\C=C/c1cc2cc(Cl)c(Cl)cc2[nH]1)C(=O)NC1CC(C)(C)N(C)C(C)(C)C1 | 2.5 µM |  |  |  |  |
| CO/C(=C/C=C/c1cc2cc(Cl)c(Cl)cc2[nH]1)C(=O)NC1CC(C)(C)N(C)C(C)(C)C1 |  | 6.33 µM |  |  |  |
| CO/C(=C\C=C\c1cc2cc(Cl)c(Cl)cc2[nH]1)C(=O)NC1CC(C)(C)N(C)C(C)(C)C1 | 0.158 µM |  | 0.0135 µM | 0.0034 µM | 0.125 µM |
